Measurements as given in publication PMC7176092, “Development of the first in vivo GPR17 ligand through an iterative drug discovery pipeline: A novel disease-modifying strategy for multiple sclerosis” (PLoS ONE, 2020).
Read-outs that look alike come from different tables or passages of the source.

Biological target: T1, M5 (Homo sapiens, UniProt P08912)
T1 construct: Eurofins Cerep (external service)
T1 sequence (P08912 1-532): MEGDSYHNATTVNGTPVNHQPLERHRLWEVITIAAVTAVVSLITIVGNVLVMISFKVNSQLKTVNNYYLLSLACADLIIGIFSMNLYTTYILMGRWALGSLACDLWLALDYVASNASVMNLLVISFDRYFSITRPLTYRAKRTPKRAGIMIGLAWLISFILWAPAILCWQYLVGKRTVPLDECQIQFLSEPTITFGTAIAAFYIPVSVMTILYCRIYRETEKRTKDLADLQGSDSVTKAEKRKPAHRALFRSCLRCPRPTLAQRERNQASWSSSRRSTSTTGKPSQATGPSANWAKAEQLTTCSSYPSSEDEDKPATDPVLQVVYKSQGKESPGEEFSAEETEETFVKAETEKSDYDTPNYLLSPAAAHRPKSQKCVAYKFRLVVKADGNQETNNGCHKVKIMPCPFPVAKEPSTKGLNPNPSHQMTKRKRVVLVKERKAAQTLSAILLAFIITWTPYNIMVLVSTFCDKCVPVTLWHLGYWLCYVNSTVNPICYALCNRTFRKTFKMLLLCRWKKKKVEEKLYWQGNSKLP
Test: Binding assay M5
Settings: 100 nM

With `Cc1ccc(-c2nnc(SCC(=O)Nc3nccs3)[nH]2)cc1` [Compound 9] the remaining activity at 0.1 µM (mean of 2, read-out: % Of control specific binding, Mean) was 97.4%, the inhibition at 0.1 µM (read-out: % Inhibition of control specific binding) was 3% and the “% Of control specific binding” value (single replicates 1 and 2, 0.1 µM) was 105.1%. The remaining activity at 0.1 µM (single replicates 1 and 2, read-out: % Of control specific binding) was 89.7%.
